According to US20130217664A1, “NOVEL COMPOUNDS USEFUL FOR THE TREATMENT OF DEGENERATIVE AND INFLAMMATORY DISEASES” (priority 2012, published 2013):
Like-named read-outs stand apart in the source and are kept apart here.

Legend:
[1] = test system: pSTAT1(2)-luciferase reporter in HeLa cells triggered with human OSM; assay: JAK-STAT signalling assay; type: cell-based; details: HeLa cells, pSTAT1(2)-luciferase reporter, human OSM 33 ng/mL, read-out: JAK-STAT IC50
In short: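 Compound added 60 min before 33 ng/mL (final) human OSM; after overnight stimulation at 37 °C, luciferase signal from a transiently transfected pSTAT1(2) reporter in HeLa cells was read, with LacZ as internal control. EC50 derived from percent-inhibition dose-response curves.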

[2] = molecular target: T1, human JAK2 (Homo sapiens, UniProt O60674); assay: JAK2 inhibition assay (polyGT substrate / Ulight-JAK1 peptide); type: biochemical; details: recombinant human JAK2 catalytic domain; polyGT or Ulight-JAK1 peptide assay
T1 construct: catalytic domain (amino acids 808-1132; catalog number PV4210); GST; purchased Invitrogen PV4210
T1 sequence (O60674 808-1132): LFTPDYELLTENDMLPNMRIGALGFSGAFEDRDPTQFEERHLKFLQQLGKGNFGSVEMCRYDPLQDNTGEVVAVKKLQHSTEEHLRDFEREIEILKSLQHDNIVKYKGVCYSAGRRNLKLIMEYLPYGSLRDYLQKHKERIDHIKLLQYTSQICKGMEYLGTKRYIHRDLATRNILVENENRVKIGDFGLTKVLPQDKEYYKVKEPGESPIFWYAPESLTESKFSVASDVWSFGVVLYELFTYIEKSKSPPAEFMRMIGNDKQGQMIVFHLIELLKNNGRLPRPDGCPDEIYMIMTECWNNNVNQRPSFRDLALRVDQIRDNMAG
In short: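 Two JAK2 formats: a ^33P-ATP polyGT assay (1 μM cold ATP, 90 min, 30° C., cpm read-out) and a Ulight-JAK1 peptide assay read by Europium-anti-phosphotyrosine fluorescence after 60 min at room temperature.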

[3] = test system: CTLL-2 cell line; assay: CTLL2 viability assay; type: cell-based; details: Mus musculus, IL-2 dependent CTLL2 viability, 24 h, ATP-lite
Excerpt: The protocol describes the methods to analyse the activity of compounds on their ability to sustain the IL2-dependent viability of CTLL2.
Final DMSO concentration was 0.1%.

[4] = test system: BA/F3 cell line; assay: BA/F3 viability assay; details: Mus musculus, BaF3, 48 h, read-out: BA/F3 IC50

Structure (SMILES)	IC50 [1]	IC50 [2]	IC50 [3]	IC50 [4]	IC50 ([1]; Homo sapiens, HeLa)
CCc1cc(C2CN(C(=O)C(F)F)C2)ncc1N(C)c1cc2c(cn1)ncn2C [Compound 333, 1-(3-{4-Ethyl-5-[methyl-(1-methyl-1H-imidazo[4,5-c]pyridin-6-yl)-amino]-pyridin-2-yl}-azetidin-1-yl)-2,2-difluoro-ethanone]	> 1000 nM	101 to 500 nM	> 1000 nM	> 5000 nM	–
CCc1cc(CN(C)S(C)(=O)=O)c(F)cc1N(C)c1cc2c(cn1)ncn2C [Compound 319, N-{5-Ethyl-2-fluoro-4-[methyl-(1-methyl-1H-imidazo[4,5-c]pyridin-6-yl)-amino]-benzyl}-N-methyl-methanesulfonamide]	–	0.01 to 100 nM	> 1000 nM	1000 to 5000 nM	501 to 1000 nM
CCc1cc(CNS(C)(=O)=O)c(F)cc1N(C)c1cc2c(cn1)ncn2C [Compound 325, N-{5-Ethyl-2-fluoro-4-[methyl-(1-methyl-1H-imidazo[4,5-c]pyridin-6-yl)-amino]-benzyl}-methanesulfonamide]	–	0.01 to 100 nM	> 1000 nM	> 5000 nM	1 to 500 nM
CCc1cc(CNS(=O)(=O)C(F)F)c(F)cc1N(C)c1cc2c(cn1)ncn2C [Compound 327, N-{5-Ethyl-2-fluoro-4-[methyl-(1-methyl-M-imidazo[4,5-c]pyridin-6-yl)-amino]-benzyl}-C,C-difluoro-methanesulfonamide]	–	0.01 to 100 nM	501 to 1000 nM	1000 to 5000 nM	1 to 500 nM
CCc1cc(C(C)O)ccc1N(C)c1cc2c(cn1)ncn2C (stereo not shown) [Compound 101, 1-(3-Ethyl-4-(methyl(1-methyl-1H-imidazo[4,5-c]pyridin-6-yl)amino)phenyl)ethanol]	–	0.01 to 100 nM	> 1000 nM	> 5000 nM	1 to 500 nM
CCc1cc(C2CN(S(=O)(=O)C(F)F)C2)ncc1N(C)c1cc2c(cn1)ncn2C [Compound 329, {6-[1-(Difluoro-methanesulfonyl)-azetidin-3-yl]-4-ethyl-pyridin-3-yl}-methyl-(1-methyl-1H-imidazo[4,5-c]pyridin-6-yl)-amine]	1 to 500 nM	0.01 to 100 nM	501 to 1000 nM	> 5000 nM	–
CCc1cc(C2CN(C(=O)C(F)(F)F)C2)ncc1N(C)c1cc2c(cn1)ncn2C [Compound 334, 1-(3-{4-Ethyl-5-[methyl-(1-methyl-1H-imidazo[4,5-c]pyridin-6-yl)-amino]-pyridin-2-yl}-azetidin-1-yl)-2,2,2-trifluoro-ethanone]	> 1000 nM	0.01 to 100 nM	> 1000 nM	> 5000 nM	–
